Reference: US20020025940A1, “Methods and compositions for sensitive and rapid, functional identification of genomic polynucleotides and use for cellular assays in drug discovery” (Aurora Biosciences Corporation, priority 1997, published 2002)

Columns and labels:
Assay type in all cases: cell-based, human
[1] = tested on: clone C2 (3×NFAT response element linked to beta-lactamase, M1 muscurinic receptor); test: Relative beta-lactamase activity of control clone C2; details: PMA 8 nM, Thaps 1 microM, CsA 100 nM, PHA 10 microgram/ml
From the text: (§1) Isolated clones from PHA-induced (Example 6) and PHA-repressed (Example 7) procedures described above were characterized to determine the specificity of their modulation and time required for induction or repression. Clones were stimulated with multiple activators or inhibitors over a one to twenty-four hour time interval.
(§2) In this study, PMA, which is a PKC activator, Thapsigargin which increases intracellular calcium, PHA which activates the T-cell receptor pathway, and cyclosporin A which is a clinically approved immunosuppressant that inhibits the Ca^2+ dependent phosphates calcineurin were investigated for their ability to modulate beta-lactamase expression in PHA induced and repressed BLEC clones.

[2] = tested on: induced BLEC Jurkat clones; test: Characterization of induced BLEC Jurkat clones, change in 460/530 ratio; details: PHA 10 microgram/ml, Thaps 1 microM, PMA 8 nM, Anti-CD3 2 microgram/ml
From the text: These clones represent cells in which the trapping construct had integrated into a gene up regulated by PHA (T-cell) activation. Thus, these cells report the transcriptional activation of a gene upon cellular activation. Individual clones were identified and isolated by FACS using CCF2/AM to detect beta-lactamase activity. This clone isolation method, the induced sorting paradigm, used three sequential and independent stimulation and sorting protocols. […] These control cells were all green.
These isolated clones were expanded and tested for PHA inducibility by microscopic inspection with and without PHA stimulation in the presence of CCF2/AM. A total of fifty-five PHA inducible clones were identified using this procedure. The PHA inducibility for these clones ranged from a 1.5 to 40 fold change in the 460/530 ratio as compared to unstimulated control cells. Genomic Southern analysis using a DNA probe encoding beta-lactamase established that these clones represented 34 independent stable vector integration events. A list of clones obtained by the methods of the present invention and their characteristics is provided below in Table 6 and Table 7.
In addition to PHA inducible clones, Phobol 12-myristate 13-acetate (PMA) (Calbiochem), Thapsigargin (Thaps) (Calbiochem), and PMA+Thaps inducible clones were isolated using the general procedure set forth above using the indicated inducer rather than PHA. PMA is a specific activator of PKC (protein kinase C) and Thaps is a specific activator of intracellular calcium ion release (Thaps). These clones were isolated using three rounds of FACS using the general procedures described for the PHA inducible clones in Example 5. In such instances, other stimulants were substituted for PHA. PMA was provided at 8 nM, Thaps was provided at 1 microM. When these two stimulants were combined, their concentration was not changed. […] By using varied selection conditions, it is possible to isolate functionally distinct clones downstream of the desired signaling target.
Table 7 and Table 8 provide data similar to that provided in Table 5 for all of the clones obtained by the methods of Examples 5 to 7.

BLEC Jurkat clones = test: Specificity of activated BLEC Jurkat clones, relative beta-lactamase activity; details: PMA 8 nM, Thaps 1 microM, CsA 100 nM, PHA 10 microgram/ml
From the text: as §1, §2

C/C=C(/C)C(=O)O[C@H]1C(C)=C2[C@H]([C@@H]1OC(=O)CCCCCCC)[C@@](C)(OC(C)=O)C[C@H](OC(=O)CCC)[C@@]1(O)[C@H]2OC(=O)[C@@]1(C)O [Thaps, Thapsigargin]
100%: Relative Beta-Lactamase Activity of the Clone by the Indicated Stimulus After 24 hours (% of maximum activated stimuli) (BLEC Jurkat clones; clone J83-PI9) | Relative Beta-Lactamase Activity of the Clone by the Indicated Stimulus After 24 hours (% of maximum activated stimuli) (BLEC Jurkat clones; clone J83-PTI8)
6-7: Change in 460/530 ratio in the indicated clone by the following activator ([2]; clone J83PI3)
1-2: Change in 460/530 ratio in the indicated clone by the following activator ([2]; clone J83PI2) | Change in 460/530 ratio in the indicated clone by the following activator ([2]; clone J83PI8) | Change in 460/530 ratio in the indicated clone by the following activator ([2]; clone J83PI16) | Change in 460/530 ratio in the indicated clone by the following activator ([2]; clone J83PI19) | Change in 460/530 ratio in the indicated clone by the following activator ([2]; clone J97PI3) | Change in 460/530 ratio in the indicated clone by the following activator ([2]; clone J97PI4) | Change in 460/530 ratio in the indicated clone by the following activator ([2]; clone J325B11) | Change in 460/530 ratio in the indicated clone by the following activator ([2]; clone J326C9)
4-5: Change in 460/530 ratio in the indicated clone by the following activator ([2]; clone J97PI7) | Change in 460/530 ratio in the indicated clone by the following activator ([2]; clone J97PI9) | Change in 460/530 ratio in the indicated clone by the following activator ([2]; clone J97PI23)
0%: Relative Beta-Lactamase Activity of the Clone by the Indicated Stimulus After 24 hours (% of maximum activated stimuli) [1]
10: Change in 460/530 ratio in the indicated clone by the following activator ([2]; clone J389PT4)
2-3: Change in 460/530 ratio in the indicated clone by the following activator ([2]; clone J83PI13) | Change in 460/530 ratio in the indicated clone by the following activator ([2]; clone J97PI19) | Change in 460/530 ratio in the indicated clone by the following activator ([2]; clone J97PI20) | Change in 460/530 ratio in the indicated clone by the following activator ([2]; clone J97PI21) | Change in 460/530 ratio in the indicated clone by the following activator ([2]; clone J389PM3) | Change in 460/530 ratio in the indicated clone by the following activator ([2]; clone J389PM7) | Change in 460/530 ratio in the indicated clone by the following activator ([2]; clone J389TI1)
1.9: Change in 460/530 ratio in the indicated clone by the following activator ([2]; clone J97PI5)
5%: Relative Beta-Lactamase Activity of the Clone by the Indicated Stimulus After 24 hours (% of maximum activated stimuli) (BLEC Jurkat clones; clone J389-PTI4)
3-4: Change in 460/530 ratio in the indicated clone by the following activator ([2]; clone J83PI1) | Change in 460/530 ratio in the indicated clone by the following activator ([2]; clone J83PI4) | Change in 460/530 ratio in the indicated clone by the following activator ([2]; clone J97PI1) | Change in 460/530 ratio in the indicated clone by the following activator ([2]; clone J97PI8) | Change in 460/530 ratio in the indicated clone by the following activator ([2]; clone J97PI10) | Change in 460/530 ratio in the indicated clone by the following activator ([2]; clone J97PI14) | Change in 460/530 ratio in the indicated clone by the following activator ([2]; clone J97PI15) | Change in 460/530 ratio in the indicated clone by the following activator ([2]; clone J97PI18) | Change in 460/530 ratio in the indicated clone by the following activator ([2]; clone J97PI24) | Change in 460/530 ratio in the indicated clone by the following activator ([2]; clone J97PI116) | Change in 460/530 ratio in the indicated clone by the following activator ([2]; clone J389PM2) | Change in 460/530 ratio in the indicated clone by the following activator ([2]; clone J389PM5) | Change in 460/530 ratio in the indicated clone by the following activator ([2]; clone J389PM8) | Change in 460/530 ratio in the indicated clone by the following activator ([2]; clone J389PTt) | Change in 460/530 ratio in the indicated clone by the following activator ([2]; clone J389TI4)
1-2%: Relative Beta-Lactamase Activity of the Clone by the Indicated Stimulus After 24 hours (% of maximum activated stimuli) (BLEC Jurkat clones; clone J32-6D4)
5-7: Change in 460/530 ratio in the indicated clone by the following activator ([2]; clone J97PI22)
2: Change in 460/530 ratio in the indicated clone by the following activator ([2]; clone J83PI7) | Change in 460/530 ratio in the indicated clone by the following activator ([2]; clone J83PI14) | Change in 460/530 ratio in the indicated clone by the following activator ([2]; clone J83PI15)
85%: Relative Beta-Lactamase Activity of the Clone by the Indicated Stimulus After 24 hours (% of maximum activated stimuli) (BLEC Jurkat clones; clone J83 97-PPTR2 (repressed paradigm))
5-6: Change in 460/530 ratio in the indicated clone by the following activator ([2]; clone J83PI9) | Change in 460/530 ratio in the indicated clone by the following activator ([2]; clone J97PI11) | Change in 460/530 ratio in the indicated clone by the following activator ([2]; clone J97PI12) | Change in 460/530 ratio in the indicated clone by the following activator ([2]; clone J97PI13)
4-6: Change in 460/530 ratio in the indicated clone by the following activator ([2]; clone J97PI6)
7-8: Change in 460/530 ratio in the indicated clone by the following activator ([2]; clone J83PI6) | Change in 460/530 ratio in the indicated clone by the following activator ([2]; clone J83PI18) | Change in 460/530 ratio in the indicated clone by the following activator ([2]; clone J97PI17)
0: Change in 460/530 ratio in the indicated clone by the following activator ([2]; clone J326D4)
